In experiment [1] the target is T1, human mAChR M1 (Homo sapiens, UniProt P11229).
T1 sequence (P11229 1-460): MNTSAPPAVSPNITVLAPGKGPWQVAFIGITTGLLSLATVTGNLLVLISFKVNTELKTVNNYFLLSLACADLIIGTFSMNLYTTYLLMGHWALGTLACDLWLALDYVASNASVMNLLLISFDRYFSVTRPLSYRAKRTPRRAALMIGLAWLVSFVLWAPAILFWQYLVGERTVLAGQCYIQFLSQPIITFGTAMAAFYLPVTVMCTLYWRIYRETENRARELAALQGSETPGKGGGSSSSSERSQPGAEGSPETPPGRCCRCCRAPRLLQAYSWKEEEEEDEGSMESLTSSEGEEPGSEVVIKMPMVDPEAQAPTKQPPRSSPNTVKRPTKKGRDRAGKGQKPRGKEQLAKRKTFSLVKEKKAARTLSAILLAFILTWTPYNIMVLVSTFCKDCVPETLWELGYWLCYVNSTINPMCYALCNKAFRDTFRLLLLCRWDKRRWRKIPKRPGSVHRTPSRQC
The experiment can be described thus: mAChR M1 cell-based functional assay (calcium mobilization), agonist mode: compound alone, Emax relative to acetylcholine maximum. Conditions: for EC50 / Agonist Activity Human M1 EC50: human mAChR M1; for Emax: relative to the maximum for acetylcholine; call rule not given here. An outline of the steps: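 Agonist activity is the concentration-dependent rise in intracellular calcium (Fluo-4, 1 Hz read) after compound addition, measured before any acetylcholine was added, in stable hM1 CHO-K1 cells. Curves were 11-point, 1:3 dilutions fitted by four-parameter logistic. Emax is given as a fraction of maximal acetylcholine response.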
For orientation: Calcium flux is commonly read through the fluorescence of an indicator in the cells.

Experiment [2] has as its target T1, human mAChR M1. Briefly: mAChR M1 cell-based functional assay (calcium mobilization), PAM mode: increase in the EC20 acetylcholine response. An outline of the steps: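 PAM readout is the concentration-dependent rise in the EC20 acetylcholine calcium signal, fitted to a four-parameter logistic (EC50, Emax). Compounds were preincubated from 4 s before ACh at 144 s (EC20) and 230 s (EC80). hM1-expressing CHO-K1 cells loaded with Fluo-4, FDSS ratio read.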

SMILES strings stand for the structures.

For `[2H]C1([2H])c2ncccc2C(=O)N1Cc1c(F)cc(-c2ccc(OC)c3nn(C([2H])([2H])[2H])cc23)cc1F` [Compound 51, 6-(2,6-difluoro-4-(7-methoxy-2-(methyl-d3)-2H-indazol-4-yl)benzyl)-6,7-dihydro-5H-pyrrolo[3,4-b]pyridin-5-one-7,7-d2], the figures for the EC50 in experiment [1] and in experiment [2] were > 10000 nM and 173 nM, respectively. Besides, the Emax – broadly, the greatest response seen or fitted, relative to the assay's reference – in experiment [1] stood at 8%; in experiment [2], 89%.
`[2H]C1([2H])c2ncccc2C(=O)N1Cc1ccc(-c2ccc(O[C@@H](C)COC)c3nn(C)cc23)cc1F` [Compound 152, (S)-6-(2-fluoro-4-(7-((1-methoxypropan-2-yl)oxy)-2-methyl-2H-indazol-4-yl)benzyl)-6,7-dihydro-5H-pyrrolo[3,4-b]pyridin-5-one-7,7-d2]: in experiment [1], the EC50 (usually the concentration at which the effect is half-maximal) was ≥ 10000 nM and the Emax was determined as 27%. For the same compound, in experiment [2], the EC50 came to 643 nM and the Emax stood at 80%.
As for `[2H]C1([2H])c2ncccc2C(=O)N1Cc1c(F)cc(-c2ccc3c(cnn3C([2H])([2H])[2H])c2)cc1F` [Compound 101, 6-(2,6-difluoro-4-(1-(methyl-d3)-1H-indazol-5-yl)benzyl)-6,7-dihydro-5H-pyrrolo[3,4-b]pyridin-5-one-7,7-d2], in experiment [1], the “Agonist Activity Human M1 EC50” value was “Inactive” and the Emax is 3%. Moreover, in experiment [2], the EC50 came out at 1410 nM and the Emax worked out at 75%.
Consider `[2H]C1([2H])c2ncccc2C(=O)N1Cc1c(F)cc(-c2ccnc3nn(C)cc23)cc1F` [Compound 2, 6-(2,6-difluoro-4-(2-methyl-2H-pyrazolo[3,4-b]pyridin-4-yl)benzyl)-6,7-dihydro-5H-pyrrolo[3,4-b]pyridin-5-one-7,7-d2], for which, in experiment [1], the EC50 amounted to 7700 nM and the Emax is 34%. In addition, in experiment [2], the EC50 came out at 980 nM and the maximal response (Emax) is 57%.
For the compound `[2H]C1([2H])c2ncccc2C(=O)N1Cc1c(F)cc(-c2ccc(C)c3nn(C)cc23)cc1F` [Compound 27, 6-(4-(2,7-dimethyl-2H-indazol-4-yl)-2,6-difluorobenzyl)-6,7-dihydro-5H-pyrrolo[3,4-b]pyridin-5-one-7,7-d^2], in experiment [1], the “Agonist Activity Human M1 EC50” value is reported as “Inactive” and the Emax worked out at 4%. Moreover, in experiment [2], the EC50 stood at 542 nM and the Emax came out at 84%.
`[2H]C1([2H])c2ncccc2C(=O)N1Cc1c(F)cc(-c2ccc(C)c3c2cnn3C([2H])([2H])[2H])cc1F` [Compound 70, 6-(2,6-difluoro-4-(7-methyl-1-(methyl-d3)-1H-indazol-4-yl)benzyl)-6,7-dihydro-5H-pyrrolo[3,4-b]pyridin-5-one-7,7-d2]: in experiment [1], the “Agonist Activity Human M1 EC50” value was “Inactive” and the Emax was found to be 2%. In experiment [2], the EC50 is 1220 nM and the Emax worked out at 65%.
Consider `[2H]C1([2H])c2ncccc2C(=O)N1Cc1c(C)cc(-c2cccc3nn(C)cc23)cc1F` (single isomer, unassigned) [Compound 155, 6-(2-Fluoro-6-methyl-4-(2-methyl-2H-indazol-4-yl)benzyl)-6,7-dihydro-5H-pyrrolo[3,4-b]pyridin-5-one-7,7-d2], for which, in experiment [1], the EC50 amounted to 8250 nM and the Emax stood at 34%. In experiment [2], the EC50 worked out at 2480 nM and the Emax is 82%.
Consider `[2H]C1([2H])c2ncccc2C(=O)N1Cc1ccc(-c2ccc3cn(C)nc3c2)cc1F` [Compound 20, 6-(2-fluoro-4-(2-methyl-2H-indazol-6-yl)benzyl)-6,7-dihydro-5H-pyrrolo[3,4-b]pyridin-5-one-7,7-d2], for which, in experiment [1], the “Agonist Activity Human M1 EC50” value is “Inactive” and the Emax was determined as 3%. Moreover, in experiment [2], the EC50 stood at 3970 nM and the maximal response (Emax) amounted to 75%.
For `[2H]C1([2H])c2ncccc2C(=O)N1Cc1c(Cl)cc(-c2cccc3nn(C)cc23)cc1C1CC1` [Compound 219, 6-(2-chloro-6-cyclopropyl-4-(2-methyl-2H-indazol-4-yl)benzyl)-6,7-dihydro-5H-pyrrolo[3,4-]pyridin-5-one-7,7-d2], in that order: “Inactive”, 8%, 490 nM and 89%.
In the case of `[2H]C1([2H])c2ncccc2C(=O)N1Cc1c(F)cc(-c2cnc3nn(C)cc3c2)cc1Cl` [Compound 168, 6-(2-chloro-6-fluoro-4-(2-methyl-2H-pyrazolo[3,4-b]pyridin-5-yl)benzyl)-6,7-dihydro-5H-pyrrolo[3,4-b]pyridin-5-one-7,7-d2], in experiment [1], the “Agonist Activity Human M1 EC50” value is given as “Inactive” and the Emax is 6%. For the same compound, in experiment [2], the EC50 is 1480 nM and the Emax came out at 86%.
In the case of `[2H]C1([2H])c2ncccc2C(=O)N1Cc1c(F)cc(-c2cc(F)cc3nn(C)cc23)cc1F` [Compound 59, 6-(2,6-difluoro-4-(6-fluoro-2-methyl-2H-indazol-4-yl)benzyl)-6,7-dihydro-5H-pyrrolo[3,4-b]pyridin-5-one-7,7-d2], in experiment [1], the “Agonist Activity Human M1 EC50” value was “Inactive” and the Emax was found to be 2%. Also, in experiment [2], the EC50 was determined as 222 nM and the Emax stood at 59%.
`[2H]C1([2H])c2ncccc2C(=O)N1Cc1ccc(-c2ccc(C)c3nn(C)cc23)cc1F` [Compound 28, 6-(4-(2,7-dimethyl-2H-indazol-4-yl)-2-fluorobenzyl)-6,7-dihydro-5H-pyrrolo[3,4-b]pyridin-5-one-7,7-d2]: in experiment [1], the EC50 amounted to 6240 nM and the Emax was 28%. Also, in experiment [2], the EC50 is 535 nM and the maximal response (Emax) is 80%.
For the compound `[2H]C1([2H])c2ncccc2C(=O)N1Cc1ccc(-c2ccn3ccnc3c2)cc1` [Compound 19, 6-(4-(imidazo[1,2-a]pyridin-7-yl)benzyl)-6,7-dihydro-5H-pyrrolo[3,4-b]pyridin-5-one-7,7-d2], in experiment [1], the “Agonist Activity Human M1 EC50” value is given as “Inactive” and the Emax was 4%. For the same compound, in experiment [2], the EC50 was > 10000 nM and the Emax was determined as 58%.
Take `[2H]C1([2H])c2ncccc2C(=O)N1Cc1ccc(-c2ccc(OC(C)C)c3nn(C)cc23)cc1F` [Compound 109, 6-(2-fluoro-4-(7-isopropoxy-2-methyl-2H-indazol-4-yl)benzyl)-6,7-dihydro-5H-pyrrolo[3,4-b]pyridin-5-one-7,7-d2]: in experiment [1], the EC50 came out at 5430 nM and the Emax is 17%. In experiment [2], the EC50 worked out at 167 nM and the Emax came out at 73%.
With `[2H]C1([2H])c2ncccc2C(=O)N1Cc1c(F)cc(-c2ccc(OCC3CCO3)c3nn(C)cc23)cc1F` (stereo not shown) [Compound 135, 6-(2,6-difluoro-4-(2-methyl-7-(oxetan-2-ylmethoxy)-2H-indazol-4-yl)benzyl)-6,7-dihydro-5H-pyrrolo[3,4-b]pyridin-5-one-7,7-d2], the figures for the EC50 in experiment [1] and in experiment [2] were 7520 nM and 405 nM, respectively. The Emax in experiment [1] was 26%; in experiment [2], 78%.
As to `[2H]C1([2H])c2ncc(OCCc3ccccn3)cc2C(=O)N1Cc1c(F)cc(-c2cccc3nn(C([2H])([2H])[2H])cc23)cc1F` [Compound 126, 6-(2,6-difluoro-4-(2-(methyl-d3)-2H-indazol-4-yl)benzyl)-3-(2-(pyridin-2-yl)ethoxy)-6,7-dihydro-5H-pyrrolo[3,4-b]pyridin-5-one-7,7-d2], in experiment [1], the EC50 was ≥ 10000 nM and the Emax is 14%. In experiment [2], the EC50 turned out to be 423 nM and the Emax stood at 65%.
Take `[2H]C1([2H])c2ncccc2C(=O)N1Cc1c(F)cc(-c2ccnc3nn(C([2H])([2H])[2H])cc23)cc1F` [Compound 188, 6-(2,6-difluoro-4-(2-(methyl-d3)-2H-pyrazolo[3,4-b]pyridin-4-yl)benzyl)-6,7-dihydro-5H-pyrrolo[3,4-b]pyridin-5-one-7,7-d2]: in experiment [1], the “Agonist Activity Human M1 EC50” value was “Inactive” and the Emax was determined as 9%. For the same compound, in experiment [2], the EC50 amounted to 2710 nM and the Emax is 71%.
The corresponding values for `[2H]C1([2H])c2ncccc2C(=O)N1Cc1c(C)cc(-c2ccc(Cl)c3nn(C)cc23)cc1F` [Compound 199, 6-(4-(7-chloro-2-methyl-2H-indazol-4-yl)-2-fluoro-6-methylbenzyl)-6,7-dihydro-5H-pyrrolo[3,4-b]pyridin-5-one-7,7-d2] are “Inactive”, 4%, 475 nM and 81%.
Consider `[2H]C1([2H])c2ncccc2C(=O)N1Cc1c(F)cc(-c2ccc(OCCOC)c3nn(C)cc23)cc1Cl` [Compound 170, 6-(2-chloro-6-fluoro-4-(7-(2-methoxyethoxy)-2-methyl-2H-indazol-4-yl)benzyl)-6,7-dihydro-5H-pyrrolo[3,4-b]pyridin-5-one-7,7-d2], for which, in experiment [1], the “Agonist Activity Human M1 EC50” value is “Inactive” and the Emax was determined as 9%. Besides, in experiment [2], the EC50 turned out to be 322 nM and the Emax stood at 81%.

The values above are taken from US20240228489A1, “POSITIVE ALLOSTERIC MODULATORS OF THE MUSCARINIC ACETYLCHOLINE RECEPTOR M1” (Vanderbilt University, priority 2021, published 2024).
